Results taken from patent US6235716A, “Multivalent ligands which modulate angiogenesis” (Children's Medical Center Corporation, priority 1999, dated 2001).
No end group written: not given here.

How the values were obtained:
[1] = system: B16 melanoma tumors; experiment: Multivalent ligands modulate B16 melanoma tumor growth in mice; format: in vivo; details: C57BL or CBF1 mice; S.C. injection remote from tumor, 20-30 mg/kg body weight/day for two weeks, started one week after tumor inoculation
Experimental: B16 melanoma cells were injected into 7-8 week old female C57BL mice or CBF1 mice, S.C., 2×10^5 cells per mouse, in 0.1 ml volume. One week after the tumor innoculation, the treatment was started by S.C. injection at sites remote from the tumor of the indicated multivalent ligand at a dose 20-30 mg/kg body weight/day for a period of two weeks. Tumors were measured with a dial-caliper and volumes were determined using the formula: (width)^2×length×0.52. Each group (experimental or control) contained 5-6 mice. FIGS. 6-9 depict changes in mean tumor-volume over time.

[2] = system: bovine aortic endothelial cells (A19 cells); experiment: Proliferation of bovine aortic endothelial cells in vitro (methylene blue staining, O.D. 630 nm); format: cell-based; details: increasing concentrations (μg/ml), 72-80 hours incubation, medium with 1 ng/ml basic fibroblast growth factor; relative to untreated cells
Experimental: The experiments were performed using 96 well, flat bottom, tissue culture microtiter plates. Culture medium was prepared from DMEM, penicillin (100 U/ml), streptomycin (100 μg/ml), glutamine (2 mM), 10% endotoxin free bovine calf serum (Hyclone) and 1 ng/ml of basic fibroblast growth factor (any commericial source).
Bovine aortic endothelial cells (referred to herein as "A19 cells") were obtained by procedures disclosed in Gospodorowicz et al., Proc. Natl. Acad. Sci. USA 73:4120 (1976), the entire teachings of which are incorporated herein by reference. An A19 cell suspension at 25×10^3 cells/ml was prepared in the above described culture medium and distributed 0.160 ml/well (about 4000 endothelial cells/well).
Multivalent ligand peptides Tip-18.40 and Tip-19.40 stock solutions was prepared by diluting a 10 mM solution of the HJ peptide in 100% DMSO with phosphate buffered saline (PBS)containing 0.1% BSA. The concentration of HJ peptide in each stock solution was adjusted to nine times the desired concentration of the HJ peptide in the assay mixture. 0.020 ml of each HJ peptide stock solution was added to the corresponding wells about 2 hours after BCE plating, with six replicates for each concentration. […]
The wells were washed one time with borate buffer (0.1 M, pH 8.5). […] After extracting overnight, the O.D. was read at 630 nm to determine the relative number of cells per well. […]

Substance | effect on B16 melanoma tumor growth (mean tumor volume over time versus vehicle control) [1] | effect on proliferation of bovine aortic endothelial cells in vitro [2]
Tip-12.40: four-branch pennant polylysine trimer; four peptides of SEQ ID NO.: 7 (endostatin AHR derivative) attached by covalent bond (Ac-TFRAFLSSRLQDLYSIVRRADG; also: four copies on branched polylysine core) | suppressed tumor growth | 
Tip-13.40: four-branch pennant polylysine trimer; four peptides of SEQ ID NO.: 8 (TSP-1 AHR derivative) attached by covalent bond (Ac-AYRWRLSHRPKTGFIRVVMYEG; also: four copies on branched polylysine core) | suppressed tumor growth | 
Tip-14.40: four-branch pennant polylysine trimer; four TSP-1/endostatin hybrid peptides of SEQ ID NO.: 3 attached by covalent bond (Ac-TFRAFLSSRLQTGFIRVVMYEG; also: four copies on branched polylysine core) | weak, but statistically significant inhibition | 
Tip-15.40: four-branch pennant polylysine trimer; four TSP-1/endostatin hybrid peptides of SEQ ID NO.: 4 attached by covalent bond (Ac-AYRWRLSHRPKDLYSIVRRADG; also: four copies on branched polylysine core) | weak, but statistically significant inhibition | 
Tip-16.40: four-branch pennant polylysine trimer; four hybrid peptides of SEQ ID NO.: 10 attached via -Gly-Gly- linker (Ac-AYRWRLSHRPKDLYSIVRRADR; not fully specified; printed as Ac-AYRWRLSHRPKDLYSIVRRADR; also: four copies on polylysine core via Gly-Gly linker) | suppressed tumor growth | 
Tip-17.40: four-branch pennant polylysine trimer; four hybrid peptides of SEQ ID NO.: 9 attached via -Gly-Gly- linker (Ac-TAYRWRLSHRPKDLYSIVRRADR; not fully specified; printed as Ac-TAYRWRLSHRPKDLYSIVRRADR; also: four copies on polylysine core via Gly-Gly linker) | promoted tumor growth | 
Tip-18.40: four-branch pennant polylysine trimer; four hybrid peptides of SEQ ID NO.: 11 attached via -Gly-Gly- linker (Ac-RWRLSHRPKDLYSIVRRADR; not fully specified; printed as Ac-RWRLSHRPKDLYSIVRRADR; also: four copies on polylysine core via Gly-Gly linker) | suppressed tumor growth | inhibit the proliferation
Tip-19.40: four-branch pennant polylysine trimer; four hybrid peptides of SEQ ID NO.: 12 attached via -Gly-Gly- linker (Ac-KDFTAYRWRLSHRPKDLYSIVRRADR; not fully specified; printed as Ac-KDFTAYRWRLSHRPKDLYSIVRRADR; also: four copies on polylysine core via Gly-Gly linker) | suppressed tumor growth | inhibit the proliferation
